Values joined by “and” are separate entries in the source; they are usually repeats but may differ in a detail not shown here. Equal entries are not always repeated. “Also recorded” adds a separate entry of the source. Where two headings read alike, the source gives them in different places.
Columns and labels:
[1] = Temperature stability at 60° C. and 80° C. in McIlvaine buffer pH 5, absorption maxima
Description: Buffer and atrorosin was mixed for 5 minutes before the solutions were subjected heating in an incubator at 60° C. and 80° C. to colorimetric analysis using spectrophotometer. The absorption maxima at 425 nm and 490 nm were determined in a microtiter plate with a 0.45 cm cell length with buffer as blank. In comparison to the data in Table 3, the absorption spectrum of betanin is determined as above. […] In comparison to Table 5, the absorption spectrum of betanin is determined as above.

[2] = Pharmacokinetic profile in rats, IV and PO; assay type: in vivo; settings: for Cmax: read-out: C0/Cmax
Description: Resulting powder from example 2 was sent to Evotec to asses for the pharmacokinetic profile of atrorosin. 6 rats were used, 3 rats for IV injection of atrorosin and 3 rats for PO. The rats were injected or given through mouth gauge 2 mg/kg, and blood samples were taken at regular intervals.
In comparison to example 10, similar carminic acid was also sent to Evotec to assess the pharmacokinetic profile.

[3] = pH stability in McIlvaine buffer pH 2.2-7.2, absorption maxima by spectrophotometer; assay type: physicochemical
TA 98 = assay: mini-Ames (AMES MPF) genotoxicity; assay type: cell-based; settings: for genotoxic effects (in words): mini-Ames study
Description: Resulting powder from example 2 was sent to Cyprotox to asses for genotoxicity in a mini-Ames experiment. 43.2 mg of atrorosin was sent to Cyprotox. Mini-Ames test were conducted under the guidelines of OECD.
In comparison to the atrorosin tested above, similar 46.4 mg of carminic acid was also sent to Cyprotox to assess for genotoxicity.

DPPH antioxidant assay = settings: 0 μM to 45 μM, 30 minutes, absorbance 517 nm, compared to Trolox (FIG. 3)
Description: To assess antioxidant activity of Atrorosin-E, the common DPPH (2,2 Diphenyl-1-picrylhydrazyl) assay was used. A working solution of DPPH was made with a concentration of 220 μg/ml in ethanol. 1 g of the resulting powder from Example 2 was used to make a dilution row of atrorosin-E from 0 μM to 45 μM. […] of each sample was reacted to 1000 μL of DPPH for 30 minutes in the dark before absorbance was measured.
Antioxidant activity was determined by calculating the inhibition of emission of DPPH by measuring absorbance of DPPH at 517 nm before and after incubation with reactants. As Atrorosins have background emission at 517, the before sample was measured seconds after addition of atrorosins rather than before. Antioxidant activity of Atrorosin-E was compared to the standard Trolox (FIG. 3).

[4] = rat, IV 2 mg/kg, individual rats 1-3, 2 mg/kg
[5] = rat, PO 2 mg/kg, individual rats 4-6, 2 mg/kg

## CCCCCCCC(=O)C1=C2C=C3C=C(/C=C\C(=O)O)N([C@@H](CCC(=O)O)C(=O)O)C=C3C(=O)C2(C)OC1=O (stereo partly shown) [Atrorosin-E]
[1]; 60° C., pH 5, 1 H
  Absorption at 425 nm: 2.01
  Absorption at 490 nm: 3.53
[1]; 60° C., pH 5, 2 H
  Absorption at 425 nm: 1.98
  Absorption at 490 nm: 3.42
[1]; 60° C., pH 5, 3 H
  Absorption at 425 nm: 1.78
  Absorption at 490 nm: 3.11
[1]; 60° C., pH 5, 24 H
  Absorption at 425 nm: 0.78
  Absorption at 490 nm: 1.31
[1]; 60° C., pH 5, T0: Start
  Absorption at 425 nm: 2.03
  Absorption at 490 nm: 3.55
[1]; 80° C., pH 5, 1 H
  Absorption at 425 nm: 1.66
  Absorption at 490 nm: 2.86
[1]; 80° C., pH 5, 2 H
  Absorption at 425 nm: 1.23
  Absorption at 490 nm: 2.13
[1]; 80° C., pH 5, 3 H
  Absorption at 425 nm: 0.99
  Absorption at 490 nm: 1.71
[1]; 80° C., pH 5, 15 min
  Absorption at 425 nm: 2.00
  Absorption at 490 nm: 3.38
[1]; 80° C., pH 5, T0: Start
  Absorption at 425 nm: 2.04
  Absorption at 490 nm: 3.48
[2]; rat, IV 2 mg/kg, Mean
  C0/Cmax: 10098 ng/mL
  CL/CL_F (plasma clearance): 16 ± 2 mL/min/kg
  Clast: 3.15 ng/mL
  MRT: 0.5 h
  Vdss: 0.5 L/kg
  t½: 1.3 ± 0.6 h
  Cmax: 18.6 µM
[2]; rat, IV 2 mg/kg, individual rats 1-3
  Vdss: 0.5 L/kg
[2]; [4]
  AUC0-t: 2330 ng · hr/mL and 1818 ng · hr/mL and 2055 ng · hr/mL and 4297 nM · hr and 3352 nM · hr and 3790 nM · hr
  AUCinf: 2336 ng · hr/mL and 1822 ng · hr/mL and 2063 ng · hr/mL and 4308 nM · hr and 3360 nM · hr and 3804 nM · hr
  C0/Cmax: 9019 ng/mL and 10685 ng/mL and 10589 ng/mL
  CL/CL_F: 14 mL/min/kg and 18 mL/min/kg and 16 mL/min/kg
  Clast: 3.26 ng/mL and 3.45 ng/mL and 2.73 ng/mL
  MRT: 0.5 h (2×) and 0.4 h
  Tlast: 8 h (2×) and 6 h
  t½: 1.3 h and 0.8 h and 1.9 h
  Cmax: 16.6 µM and 19.7 µM and 19.5 µM
[2]; rat, PO 2 mg/kg, Mean
  C0/Cmax: 4.46 ng/mL
  Clast: 3.28 ng/mL
  Cmax: 0.0082 µM
[2]; rat, PO 2 mg/kg, Mean, 2 mg/kg
  Bioavailability (%) Using AUC0-t: 0.3%
[2]; rat, PO 2 mg/kg, Mean, listed as atrorosin, 2 mg/kg
  Bioavailability (%) Using AUC0-t: 0.3%
[2]; rat, PO 2 mg/kg, Median
  Tmax: 1 h
[2]; rat, PO 2 mg/kg, individual rats 4-6
  Tlast: 2 h
[2]; [5]
  AUC0-t: 6.35 ng · hr/mL and 7.6 ng · hr/mL and 5.76 ng · hr/mL and 11.7 nM · hr and 13.9 nM · hr and 10.6 nM · hr
  Bioavailability (%) Using AUC0-t: 0.3% (2×) and 0.4%
  C0/Cmax: 4.35 ng/mL and 5.35 ng/mL and 3.68 ng/mL
  Clast: 2.6 ng/mL and 2.88 ng/mL
  Tmax: 2 h and 1 h and 0.25 h
  Cmax: 0.00803 µM and 0.0099 µM and 0.00679 µM
[2]; rat, in vivo, po, 2 mg/kg
  Clast: 4.35 ng/mL
[2]; rats, 2 mg/kg IV or PO, 2 mg/kg
  safety when ingested / adverse effects on rats (in words): safe when ingested; also recorded: nor does it have any adverse effects on rats
[3]; compared with carminic acid, Tables 1 and 2
  pH stability (in words): superior pH stability at low pH
[3]; pH 2.2
  Absorption at 425 nm: 0.63
  Absorption at 490 nm: 3.30
[3]; pH 3.5
  Absorption at 425 nm: 0.73
  Absorption at 490 nm: 3.92
[3]; pH 5
  Absorption at 425 nm: 0.75
  Absorption at 490 nm: 3.94
[3]; pH 7.2
  Absorption at 425 nm: 0.73
  Absorption at 490 nm: 3.91
TA 98; TA 98 +S9, 62.5 μg/ml
  Fold increase (over baseline): 0.55
  mean # pos. Wells: 1.33
TA 98; TA 98 +S9, 125 μg/ml
  Fold increase (over baseline): 0.28
  mean # pos. Wells: 0.67
TA 98; TA 98 +S9, 250 μg/ml
  Fold increase (over baseline): 0.42
  mean # pos. Wells: 1.00
TA 98; TA 98 +S9, 500 μg/ml
  Fold increase (over baseline): 0.28
  mean # pos. Wells: 0.67
TA 98; TA 98 +S9, 1000 μg/ml
  Fold increase (over baseline): 0.69
  mean # pos. Wells: 1.67
TA 98; TA 98 +S9, 2000 μg/ml
  Fold increase (over baseline): 0.00
  mean # pos. Wells: 0.00
TA 98; TA 98 −S9, 62.5 μg/ml
  Fold increase (over baseline): 0.00
  mean # pos. Wells: 0.00
TA 98; TA 98 −S9, 125 μg/ml
  Fold increase (over baseline): 0.76
  mean # pos. Wells: 1.00
TA 98; TA 98 −S9, 250 μg/ml
  Fold increase (over baseline): 1.52
  mean # pos. Wells: 2.00
TA 98; TA 98 −S9, 500 μg/ml
  Fold increase (over baseline): 0.76
  mean # pos. Wells: 1.00
TA 98; TA 98 −S9, 1000 μg/ml
  Fold increase (over baseline): 0.51
  mean # pos. Wells: 0.67
TA 98; TA 98 −S9, 2000 μg/ml
  Fold increase (over baseline): 0.51
  mean # pos. Wells: 0.67
TA 98
  genotoxic effects (in words): do not exert any genotoxic effects
TA 98; listed as atrorosin
  genotoxic effects (in words): not genotoxic; also recorded: neither genotoxic
DPPH antioxidant assay
  Antioxidant activity (inhibition of DPPH, in words): far more potent antioxidant than the control antioxidant Trolox
